According to PubChem BioAssay (NCI):
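The compound was tested at five concentrations on cells cultured in 96-well plates, with a 48-hour exposure period. GI50 = concentration required for 50% inhibition of growth. TGI: concentration producing complete growth inhibition.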

What was measured:
Assay in all cases: DTP human tumour cell line panel, 48 h; in the data active = GI50 below about 0.43 µM; inactive = the rest
[1] = tested on: MALME-3M melanoma
[2] = tested on: NCI/ADR-RES ovarian
[3] = tested on: KM12 colon
[4] = tested on: NCI-H226 lung
[5] = tested on: SK-OV-3 ovarian
[6] = tested on: OVCAR-4 ovarian
[7] = tested on: SF-539 CNS
[8] = tested on: SK-MEL-28 melanoma
[9] = tested on: 786-0 renal
[10] = tested on: HCT-116 colon
[11] = tested on: K-562 leukemia
[12] = tested on: TK-10 renal
[13] = tested on: SNB-75 CNS
[14] = tested on: M14 melanoma
[15] = tested on: RXF 393 renal
[16] = tested on: SK-MEL-2 melanoma
[17] = tested on: IGROV1 ovarian
[18] = tested on: SW-620 colon
[19] = tested on: NCI-H23 lung
[20] = tested on: OVCAR-3 ovarian
[21] = tested on: HS 578T breast
[22] = tested on: T-47D breast
[23] = tested on: MDA-MB-231 breast
[24] = tested on: COLO 205 colon
[25] = tested on: NCI-H522 lung
[26] = tested on: LOX IMVI melanoma
[27] = tested on: HT29 colon
[28] = tested on: MCF7 breast
[29] = tested on: SK-MEL-5 melanoma
[30] = tested on: HCC-2998 colon
[31] = tested on: NCI-H460 lung
[32] = tested on: EKVX NSCLC
[33] = tested on: SF-295 CNS
[34] = tested on: OVCAR-5 ovarian
[35] = tested on: U251 CNS
[36] = tested on: A549 NSCLC
[37] = tested on: SR leukemia
[38] = tested on: SF-268 CNS
[39] = tested on: OVCAR-8 ovarian
[40] = tested on: UO-31 renal
[41] = tested on: UACC-257 melanoma
[42] = tested on: HOP-92 NSCLC
[43] = tested on: ACHN renal
[44] = tested on: UACC-62 melanoma
[45] = tested on: BT-549 breast
[46] = tested on: RPMI-8226 leukemia
[47] = tested on: HCT-15 colon
[48] = tested on: HL-60(TB) leukemia
[49] = tested on: PC-3 prostate
[50] = tested on: MDA-MB-435
[51] = tested on: SN12C renal
[52] = tested on: CCRF-CEM leukemia
[53] = tested on: DU-145 prostate
[54] = tested on: HOP-62 NSCLC
[55] = tested on: SNB-19 CNS
[56] = tested on: A498 renal
[57] = tested on: CAKI-1 renal
[58] = tested on: MOLT-4 leukemia

CC(=O)N1CCC(Nc2cc(C(=O)NC[C@H](O)CN3CCc4ccccc4C3)ncn2)CC1
inactive: GI50 [1] > 100 µM | GI50 [2] > 100 µM | GI50 [3] > 100 µM | GI50 [4] > 100 µM | GI50 [5] > 100 µM | GI50 [6] > 100 µM | GI50 [7] > 100 µM | GI50 [8] > 100 µM | GI50 [9] > 100 µM | GI50 [10] > 100 µM | GI50 [11] > 100 µM | GI50 [12] > 100 µM | GI50 [13] > 100 µM | GI50 [14] > 100 µM | GI50 [15] > 100 µM | GI50 [16] > 100 µM | GI50 [17] > 100 µM | GI50 [18] > 100 µM | GI50 [19] > 100 µM | GI50 [20] > 100 µM | GI50 [21] > 100 µM | GI50 [22] > 100 µM | GI50 [23] > 100 µM | GI50 [24] > 100 µM | GI50 [25] > 100 µM | GI50 [26] > 100 µM | GI50 [27] > 100 µM | GI50 [28] > 100 µM | GI50 [29] > 100 µM | GI50 [30] > 100 µM | GI50 [31] > 100 µM | GI50 [32] > 100 µM | GI50 [33] > 100 µM | GI50 [34] > 100 µM | GI50 [35] > 100 µM | GI50 [36] > 100 µM | GI50 [37] > 100 µM | GI50 [38] > 100 µM | GI50 [39] > 100 µM | GI50 [40] > 100 µM | GI50 [41] > 100 µM | GI50 [42] 91.9 µM | GI50 [43] > 100 µM | GI50 [44] > 100 µM | GI50 [45] > 100 µM | GI50 [46] > 100 µM | GI50 [47] > 100 µM | GI50 [48] > 100 µM | GI50 [49] > 100 µM | GI50 [50] > 100 µM | GI50 [51] > 100 µM | GI50 [52] > 100 µM | GI50 [53] > 100 µM | GI50 [54] > 100 µM | GI50 [55] > 100 µM | GI50 [56] > 100 µM | GI50 [57] > 100 µM | GI50 [58] > 100 µM
> 100 µM: TGI [1] | TGI [2] | TGI [3] | TGI [4] | TGI [5] | TGI [6] | TGI [7] | TGI [8] | TGI [9] | TGI [10] | TGI [11] | TGI [12] | TGI [13] | TGI [14] | TGI [15] | TGI [16] | TGI [17] | TGI [18] | TGI [19] | TGI [20] | TGI [21] | TGI [22] | TGI [23] | TGI [24] | TGI [25] | TGI [26] | TGI [27] | TGI [28] | TGI [29] | TGI [30] | TGI [31] | TGI [32] | TGI [33] | TGI [34] | TGI [35] | TGI [36] | TGI [37] | TGI [38] | TGI [39] | TGI [40] | TGI [41] | TGI [42] | TGI [43] | TGI [44] | TGI [45] | TGI [46] | TGI [47] | TGI [48] | TGI [49] | TGI [50] | TGI [51] | TGI [52] | TGI [53] | TGI [54] | TGI [55] | TGI [56] | TGI [57] | TGI [58]
